{"source": "patent US20220040100A1", "about": "“Stable Acyclovir Sodium Parenteral Formulation” (RK Pharma Solutions LLC, priority 2020, published 2022)", "origin": "cited, not measured here", "conditions": "lyophilized powder reconstituted with Sterile Water for Injection, 50 mg/mL of acyclovir", "note": "Structures can show the parent of a compound that is named as a salt."}
{"smiles": "Nc1nc2c(ncn2COCCO)c(=O)[nH]1", "note": "[Acyclovir sodium, 2-amino-1,9-dihydro-9-[(2-hydroxyethoxy)methyl]-6H-purin-6-one monosodium salt]", "values": [{"measurement": "pH of the reconstituted solution", "value": "approximately 11"}]}
